Test results reported in the supplement of paper PMC10627819.

Legend:
[1] = tested on: S. pneumoniae D39V; assay: Bliss interaction score (quartile over a dose matrix) (fitness difference); higher = more antagonism (negative = synergy)
Outline: (§1)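 Fitness was derived from optical density at entry into stationary phase, divided by the robust mean of the no-drug wells on the same plate. That reading was taken as OD595, and the ratio was capped at 1. Single-drug fitness was inferred from the combination data. The Bliss score, observed fitness minus the expected product of single-drug fitness, was summarised as quartiles over technical, biological and donor/recipient replicates.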

[2] = tested on: B. subtilis 168; assay: as above
Outline: as §1

[3] = tested on: S. aureus DSM 20231; assay: as above
Outline: as §1

[4] = tested on: S. aureus Newman; assay: as above
Outline: as §1

[5] = tested on: S. pneumoniae D39V; assay: fitness (endpoint OD595 vs no drug) (fraction); higher = more growth
Outline: (§2)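 Volumes were 30 µl per well, or 55 µl for S. pneumoniae, in 384-well plates inoculated at OD595 0.01. Media were TSB, LB Lennox or CY at 37 °C, and OD595 was read every 30 min for 14 h with first-reading background subtraction. Fitness is the ratio of optical density at stationary-phase entry to the robust mean of no-drug controls. That ratio is capped at 1.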

[6] = tested on: B. subtilis 168; assay: as above
Outline: as §2

[7] = tested on: S. aureus DSM 20231; assay: as above
Outline: as §2

[8] = tested on: S. aureus Newman; assay: as above
Outline: as §2
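Throughout, for Bliss interaction score (quartile over a dose matrix): first quartile when negative (synergy) and third quartile when positive (antagonism).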

CCC[C@@H]1C[C@@H](C(=O)N[C@@H]([C@H]2O[C@H](SC)[C@H](O)[C@@H](O)[C@H]2O)[C@H](C)Cl)N(C)C1 [Clindamycin] + COc1ccc(C[C@H](N)C(=O)N[C@H]2[C@@H](O)[C@H](n3cnc4c(N(C)C)ncnc43)O[C@@H]2CO)cc1 [Puromycin]
Details	Bliss interaction score
[1]	-0.123
[2]	0.0463
[3]	-0.0327
[4]	-0.0646

Details	fitness
[5], first compound 0.0125 µg/mL, partner 1 µg/mL	0.766
[5], first compound 0.0125 µg/mL, partner 2 µg/mL	0.712
[5], first compound 0.0125 µg/mL, partner 4 µg/mL	0.473
[5], first compound 0.025 µg/mL, partner 1 µg/mL	0.533
[5], first compound 0.025 µg/mL, partner 2 µg/mL	0.475
[5], first compound 0.025 µg/mL, partner 4 µg/mL	0.33
[5], first compound 0.05 µg/mL, partner 1 µg/mL	0.261
[5], first compound 0.05 µg/mL, partner 2 µg/mL	0.192
[5], first compound 0.05 µg/mL, partner 4 µg/mL	0.11
[6], first compound 0.0625 µg/mL, partner 0.39 µg/mL	0.534
[6], first compound 0.0625 µg/mL, partner 0.78 µg/mL	0.52
[6], first compound 0.0625 µg/mL, partner 1.56 µg/mL	0.564
[6], first compound 0.125 µg/mL, partner 0.39 µg/mL	0.378
[6], first compound 0.125 µg/mL, partner 0.78 µg/mL	0.355
[6], first compound 0.125 µg/mL, partner 1.56 µg/mL	0.366
[6], first compound 0.25 µg/mL, partner 0.39 µg/mL	0.347
[6], first compound 0.25 µg/mL, partner 0.78 µg/mL	0.335
[6], first compound 0.25 µg/mL, partner 1.56 µg/mL	0.344
[7], first compound 0.0625 µg/mL, partner 1.56 µg/mL	0.179
[7], first compound 0.125 µg/mL, partner 0.39 µg/mL	0.0343
[7], first compound 0.125 µg/mL, partner 0.78 µg/mL	0.0367
[7], first compound 0.125 µg/mL, partner 1.56 µg/mL	0.0565
[8], first compound 0.0312 µg/mL, partner 0.39 µg/mL	0.741
[8], first compound 0.0312 µg/mL, partner 0.78 µg/mL	0.717
[8], first compound 0.0312 µg/mL, partner 1.56 µg/mL	0.713
[8], first compound 0.0625 µg/mL, partner 0.39 µg/mL	0.395
[8], first compound 0.0625 µg/mL, partner 0.78 µg/mL	0.412
[8], first compound 0.0625 µg/mL, partner 1.56 µg/mL	0.326
[8], first compound 0.125 µg/mL, partner 0.39 µg/mL	0.101
[8], first compound 0.125 µg/mL, partner 0.78 µg/mL	0.115
[8], first compound 0.125 µg/mL, partner 1.56 µg/mL	0.13

one replicate
Details	fitness
[5], first compound 0.015 µg/mL, partner 1 µg/mL	0.746
[5], first compound 0.015 µg/mL, partner 2 µg/mL	0.84
[5], first compound 0.015 µg/mL, partner 4 µg/mL	0.583
[5], first compound 0.03 µg/mL, partner 1 µg/mL	0.591
[5], first compound 0.03 µg/mL, partner 2 µg/mL	0.625
[5], first compound 0.03 µg/mL, partner 4 µg/mL	0.218
[5], first compound 0.06 µg/mL, partner 1 µg/mL	0.177
[5], first compound 0.06 µg/mL, partner 2 µg/mL	0.102
[5], first compound 0.06 µg/mL, partner 4 µg/mL	0.114
[6], first compound 0.0039 µg/mL, partner 0.39 µg/mL	0.956
[6], first compound 0.0039 µg/mL, partner 0.78 µg/mL	0.946
[6], first compound 0.0039 µg/mL, partner 1.56 µg/mL	≥ 1
[6], first compound 0.0078 µg/mL, partner 0.39 µg/mL	0.853
[6], first compound 0.0078 µg/mL, partner 0.78 µg/mL	0.876
[6], first compound 0.0078 µg/mL, partner 1.56 µg/mL	0.92
[6], first compound 0.0156 µg/mL, partner 0.39 µg/mL	0.826
[6], first compound 0.0156 µg/mL, partner 0.78 µg/mL	0.907
[6], first compound 0.0156 µg/mL, partner 1.56 µg/mL	0.894
[7], first compound 0.0312 µg/mL, partner 3.12 µg/mL	0.487
[7], first compound 0.0312 µg/mL, partner 6.24 µg/mL	0.14
[7], first compound 0.0625 µg/mL, partner 3.12 µg/mL	0.212
[7], first compound 0.0625 µg/mL, partner 6.24 µg/mL	0.0867
[7], first compound 0.125 µg/mL, partner 3.12 µg/mL	0.0522
[7], first compound 0.125 µg/mL, partner 6.24 µg/mL	0.0492
